According to patent US20160318844A1, “PROSTACYCLIN COMPOUNDS, COMPOSITIONS AND METHODS OF USE THEREOF” (Insmed Incorporated, priority 2015, published 2016):

What was measured:
[1] = Treprostinil alkyl ester conversion to treprostinil in monkey lung tissue homogenate; type: in vitro ADME; conditions: 37° C.
Method: (§1) Here, data were calculated based on fit of exponential increase to the maximum (experiments performed in duplicate). The results of this study are provided below in Table 2A and FIG. 37. […] In this experiment, treprostinil alkyl esters were incubated for 4 hours at a final concentration of 200 nM in 1 mL of tissue homogenate prepared in water and normalized to 10 mg/mL of protein.
(§2) C12-TR was incubated for 4 hours at a final concentration of 200 nM in 1 mL of tissue homogenate prepared in water and normalized to 10 mg/mL of protein. Both FIG. 37 experiments (eft and right graphs) were performed in duplicate and the lines represent nonlinear exponential regression assuming 1 phase decay. Table 2A. Rate of treprostinil alkyl ester conversion in the presence of rat, dog or monkey lung tissue homogenate.

[2] = Treprostinil alkyl ester conversion to treprostinil in rat lung tissue homogenate; type: in vitro ADME; conditions: 37° C., 200 nM, 10 mg/mL of protein
Method: as §1, §2

CHO-K1 cells = test: CHO-K1 cell proliferation assay (Presto Blue); conditions: for Effect on cell proliferation, CHO-K1 Cells: detectable cell inhibition: Table 9, unformulated alkyl esters, (0.195 μM-25 μM), 48 hour incubation
Method: CHO-K1 cells were harvested when the cell monolayer was 50-90% confluent (use passage 4-11). Media was aspirated out of the flask, and cells were rinsed with 2 mL of F12 media. Next, 1 mL of pre-warmed (37° C.) 0.25% trypsin-EDTA (Life Technologies, Cat#: 25300054) was added, and cells were dislodged from the flask by tapping it on the side. Complete growth media (F12 (Life Technologies, Cat #: 31765092)+10% FBS (Hyclone, Cat #: SH30071.03)+1× Pen-Strep (Life Technologies, cat #15140-122) was then added at a volume of 10 mL. Cells were centrifuged at 250×g for 5 minutes at room temperature, and the media was aspirated. The cell pellet was resuspended in 10 mL complete growth media. Cell number was determined using a hemacytometer. Cells were then seeded at 2000 cells per well of a 96-well plate in 100 μL of complete growth media. The plate was incubated overnight at 37° C. and 5% CO2 in a water-jacketed incubator.
The next day, 80 μL of fresh complete media was added to each well, and CHO-K1 cells were challenged with treprostinil compound and composition treatments. The working solutions were prepared at 10× concentration, and following 2 fold serial dilutions, 20 μL aliquots were added per well to arrive at a final 1× concentration. Following a 48 hour incubation at 37° C. and 5% CO2 in a water-jacketed incubator, the inhibitory effect on cell proliferation was determined. Plates were analyzed using 20 μL of Presto Blue reagent (Life Technologies, cat #: A13262) per well. The reagent was mixed, and plates were incubated for 1 hour at 37° C. and 5% CO2 in a waterjacketed incubator. Plates were read using either a CytoFluor Series 4000 (PerSeptive BioSystems) or Synergy Neo microplate reader (BioTek) with emission λ: 590 nm and excitation λ: 560 nm. […]
CHO-K1 cells were challenged with treprostinil alkyl esters, i.e., TR compounds of Formula (A), having the following R2 groups: […]
C2, C3, C4, C5, C6, C8, C10 or C12 straight chain alkyl, at dosages ranging from 0.098 μM to 25 μM. Following a 48 hour incubation period, the inhibitory effect on cell proliferation was determined.
Following a 72 hour incubation period, the inhibitory effect on cell proliferation was determined. Following a 48 hour incubation period, the inhibitory effect on cell proliferation was determined. […]

physchem = conditions: organic solvent or mixture, thermodynamic from solid
Method: Selected treprostinil derivatives were evaluated for the use in a metered dose inhaler (MDI).
5 mg of each treprostinil compound was added in a glass bottle. Specific amount of ethanol was added by weight. An MDI valve was crimped to each bottle, and HFA propellant added through the valve to the total volume of 5 mL. Compounds were allowed to dissolve for 24 hours at room temperature. The formulations were assessed visually for solubility. The goal was to estimate the minimum ethanol concentration required to solubilize each compound in propellant.
Soluble samples presented as clear and colorless solutions. […] Non-soluble samples had white precipitate or crystals formed. Ethanol was added as a solubility aid.

beagle dogs = test: Clinical signs in dogs after inhalation; conditions: targeted dose of 18 μg/kg
Method: Dosimetry was performed in propofol-anesthetized dogs in which nebulized drugs were introduced into a mixing chamber interposed on the inspiratory limb of a canine respirator. Technical trials were performed before each experiment to measure the concentration of drug (μg/L) delivered for each breath. The inhaled drug dose (μg/kg) was calculated using the formula: Inhaled Drug Dose (μg/kg)=Drug Conc. (μg/L)×Minute Ventilation (L/min.)×Time (min.)/Body Weight (kg). […] Clinical signs were monitored over this 72 hr. period.
Dosimetry was performed in propofol-anesthetized, artificially ventilated dogs in which nebulized drugs were introduced into a mixing chamber interposed on the inspiratory limb of the respirator. Technical trials were performed before each experiment measuring the concentration of drug (μg/L) per breath, minute ventilation and time required to achieve a targeted pulmonary dose. […] Clinical signs (cough, rapid shallow breathing, emesis and pale gums) were also monitored.

Row | Rate of treprostinil alkyl ester conversion [1] | Rate of treprostinil alkyl ester conversion [2] | solubility at 24 h (physchem; Solubility in HFA-134a with added ethanol) [µg/mL] | solubility at 24 h (physchem; Solubility in HFA-227 with added ethanol) [µg/mL] | Structure (SMILES) | Effect on cell proliferation, CHO-K1 Cells: detectable cell inhibition (CHO-K1 cells) | inhibition of CHO-K1 cell proliferation (CHO-K1 cells; unformulated alkyl esters, highest concentration, 48 hour) | adverse clinical signs (beagle dogs)
1 | 17.3 nmOL/h * g of protein | 32.5 nmOL/h * g of protein | – | – | CCCCCCCCOC(=O)COc1cccc2c1C[C@H]1C[C@@H](O)[C@H](CC[C@@H](O)CCCCC)[C@H]1C2 [Compound C8-TR, treprostinil octyl ester] | 25 µM | showed inhibition of cell proliferation | –
2 | 0.6 nmOL/h * g of protein | 1.1 nmOL/h * g of protein | > 1000 | > 1000 | CCCCCCCCCCCCOC(=O)COc1cccc2c1C[C@H]1C[C@@H](O)[C@H](CC[C@@H](O)CCCCC)[C@H]1C2 [Compound C12-TR, dodecyl-treprostinil] | No detectable cell inhibition | – | Adverse clinical signs were seen
